Source: ChEMBL document CHEMBL1201862, “PubChem BioAssay data set” (2004)
Calls of active or inactive are those of the source.

Key:
HEK293 [1] = test: NOD1 signaling inhibitors, primary screen, cell-based, luminescence, uHTS (AID 1578); format: functional; conditions: Homo sapiens
HEK293 [2] = test: cells; format: functional, cell-based; conditions: Homo sapiens
HEK293 [3] = test: cells; format: functional, cell-based; conditions: Homo sapiens; remark: listed apart in the source
[4] = molecular target: Nucleotide-binding oligomerization domain-containing protein 2 (Homo sapiens, UniProt Q9HC29); test: NOD2 signaling inhibitors, cell-based, luminescence, uHTS, HEK293 (AID 1566); format: functional
HEK293 [5] = test: NOD2 signaling inhibitors in MDP-stimulated cells, cell-based, uHTS, luminescence (AID 2001); format: functional; conditions: Homo sapiens
HEK293 [6] = test: cells; format: functional, cell-based; conditions: Homo sapiens; remark: listed apart in the source
[7] = molecular target: T1, High affinity choline transporter 1 (Homo sapiens, UniProt Q9GZV3); test: CHT inhibitors, dose response, cell-based, 5-point CRC, membrane potential dye (AID 504840); format: functional
T1 sequence (Q9GZV3 whole entry): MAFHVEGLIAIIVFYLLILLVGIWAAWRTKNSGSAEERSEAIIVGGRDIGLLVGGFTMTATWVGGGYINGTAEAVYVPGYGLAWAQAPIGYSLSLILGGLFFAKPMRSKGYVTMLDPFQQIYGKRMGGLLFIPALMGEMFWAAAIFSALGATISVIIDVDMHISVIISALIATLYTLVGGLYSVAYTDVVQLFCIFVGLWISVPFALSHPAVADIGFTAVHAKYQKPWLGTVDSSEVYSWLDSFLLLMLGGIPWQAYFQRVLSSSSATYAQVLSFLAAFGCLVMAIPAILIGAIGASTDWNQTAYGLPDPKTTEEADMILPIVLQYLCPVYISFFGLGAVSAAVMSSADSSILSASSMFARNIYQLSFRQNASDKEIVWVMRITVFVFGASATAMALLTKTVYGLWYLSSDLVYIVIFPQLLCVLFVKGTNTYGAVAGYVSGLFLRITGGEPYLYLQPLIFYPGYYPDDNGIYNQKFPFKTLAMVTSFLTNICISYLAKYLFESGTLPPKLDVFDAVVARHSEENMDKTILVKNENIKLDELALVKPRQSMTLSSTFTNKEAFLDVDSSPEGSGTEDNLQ

[8] = Shn3 3'UTR reporter inhibitors, dose response, cell-based, Clone20 osteoblasts, firefly luciferase, cherry-picked (AID 624132); format: functional;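 note: firefly luciferase luminescence from reporter carrying the Shn3 3'UTR in osteoblasts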
[9] = HepG2 cell cytotoxicity, dose response, cytotoxicity control for Shn3 inhibitor project, CellTiter-Glo, cherry-picked (AID 624134); format: functional, cell-based
[10] = control 3'UTR Renilla luciferase suppression, dose response, counter-screen for Shn3 inhibitor project, cell-based, Clone20-Shn3RL, cherry-picked (AID 624133); format: functional
HEK293 [11] = test: cells; format: functional, cell-based; conditions: Homo sapiens; remark: listed apart in the source
[12] = molecular target: T2, Nuclear receptor subfamily 0 group B member 1 (Homo sapiens, UniProt P51843); test: Luminescence-based cell-based high throughput dose response assay for inhibitors of the orphan nuclear receptor subfamily 0, group B, member 1 (DAX1; NR0B1). [Related pubchem assays (depositor defined):AID504766, AID504790]; format: functional
T2 sequence (P51843 whole entry): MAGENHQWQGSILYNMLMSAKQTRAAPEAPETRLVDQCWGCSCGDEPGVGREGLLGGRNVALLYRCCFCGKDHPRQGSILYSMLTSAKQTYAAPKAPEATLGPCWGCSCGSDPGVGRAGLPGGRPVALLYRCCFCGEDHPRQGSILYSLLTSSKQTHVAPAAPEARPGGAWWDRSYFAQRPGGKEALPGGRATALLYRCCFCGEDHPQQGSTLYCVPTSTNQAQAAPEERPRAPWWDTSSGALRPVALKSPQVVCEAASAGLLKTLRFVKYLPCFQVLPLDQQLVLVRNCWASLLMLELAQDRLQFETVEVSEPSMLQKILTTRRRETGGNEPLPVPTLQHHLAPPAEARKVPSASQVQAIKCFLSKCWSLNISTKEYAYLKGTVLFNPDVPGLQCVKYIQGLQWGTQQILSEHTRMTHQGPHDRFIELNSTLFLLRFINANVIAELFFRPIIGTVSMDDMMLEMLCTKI

Cytochrome P450 1A2 = molecular target: T3, Cytochrome P450 1A2 (Homo sapiens, UniProt P05177);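 note: PubChem cytochrome P450 panel assay, CYP1A2 panel member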
T3 sequence (P05177 whole entry): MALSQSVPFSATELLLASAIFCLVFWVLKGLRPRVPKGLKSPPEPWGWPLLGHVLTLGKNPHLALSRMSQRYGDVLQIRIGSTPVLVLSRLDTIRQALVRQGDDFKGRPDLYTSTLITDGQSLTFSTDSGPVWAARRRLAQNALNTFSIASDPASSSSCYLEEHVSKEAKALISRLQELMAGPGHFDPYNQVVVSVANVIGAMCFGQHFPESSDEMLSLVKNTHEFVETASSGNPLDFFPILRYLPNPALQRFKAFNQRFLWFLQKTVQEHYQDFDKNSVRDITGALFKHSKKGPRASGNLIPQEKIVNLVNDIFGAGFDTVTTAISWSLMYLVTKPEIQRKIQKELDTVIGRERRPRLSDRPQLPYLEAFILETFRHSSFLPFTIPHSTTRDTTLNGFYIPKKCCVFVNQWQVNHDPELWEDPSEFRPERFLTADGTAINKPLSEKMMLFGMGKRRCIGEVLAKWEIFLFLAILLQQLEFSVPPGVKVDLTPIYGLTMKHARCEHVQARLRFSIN

Cytochrome P450 2C9 = Cytochrome P450 2C9 (Homo sapiens, UniProt P11712)
Cytochrome P450 3A4 = Cytochrome P450 3A4 (Homo sapiens, UniProt P08684);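 note: CYP3A4 tested as one member of a cytochrome P450 panel screen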
[13] = molecular target: T4, Ubiquitin-conjugating enzyme E2 N (Homo sapiens, UniProt P61088); format: functional;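 note: Dose-response confirmation in a TR-FRET assay detecting UBC13-driven polyubiquitin chain formation, inhibition measured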
T4 sequence (P61088 whole entry): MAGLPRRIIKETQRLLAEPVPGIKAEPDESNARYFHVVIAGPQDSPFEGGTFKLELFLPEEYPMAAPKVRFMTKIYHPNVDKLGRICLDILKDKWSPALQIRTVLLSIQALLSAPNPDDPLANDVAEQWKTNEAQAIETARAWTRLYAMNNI

Cysteine protease ATG4B = molecular target: T5, Cysteine protease ATG4B (Homo sapiens, UniProt Q9Y4P1); format: functional;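 note: Fluorescence-based dose-response confirmation assay measuring inhibition of ATG4B activity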
T5 sequence (Q9Y4P1 whole entry): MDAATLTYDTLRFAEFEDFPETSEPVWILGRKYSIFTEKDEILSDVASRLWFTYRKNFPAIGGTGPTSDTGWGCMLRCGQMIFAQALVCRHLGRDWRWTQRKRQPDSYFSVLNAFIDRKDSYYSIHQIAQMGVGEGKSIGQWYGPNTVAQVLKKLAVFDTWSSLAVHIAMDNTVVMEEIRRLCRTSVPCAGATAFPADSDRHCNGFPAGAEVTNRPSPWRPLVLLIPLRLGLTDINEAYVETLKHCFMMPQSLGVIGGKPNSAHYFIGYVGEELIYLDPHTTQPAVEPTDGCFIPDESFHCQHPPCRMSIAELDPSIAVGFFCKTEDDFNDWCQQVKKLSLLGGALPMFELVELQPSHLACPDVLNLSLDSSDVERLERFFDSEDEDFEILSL

Phospholipase A2 = Phospholipase A2 (Homo sapiens, UniProt P04054); format: functional;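 note: confirmatory dose-response counterscreen on phospholipase A2, testing hits that came from an ultra-high-throughput screen for ATG4B inhibitors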
[14] = NIH-3T3 fibroblast cytotoxicity, dose response, cytotoxicity control, cell-based, fluorescence, Alamar Blue, secondary assay (AID 2327); format: functional;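 note: NIH-3T3 mouse fibroblasts cultured with fluconazole at 8 µg/mL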
[15] = C. albicans growth with fluconazole, confirmation, fluorescence, retest (AID 2467); format: functional, cell-based
[16] = inhibitors of intracellular T. cruzi replication, confirmation, NIH3T3 host cells, beta-gal luminescence (AID 2044); format: functional, cell-based;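 note: intracellular parasites grown in NIH/3T3 mouse fibroblasts as host cells; luminescent beta-galactosidase reporter signal from transgenic T. cruzi replicating inside host cells; inhibitors lower the luminescence signal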
[17] = cytotoxicity toward NIH3T3 fibroblasts, dose response, counter-screen, cell-based, ATP luminescence, mouse fibroblasts (AID 2010); format: functional;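 note: cells exposed to compound for about 90 hours before reading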
Cytochrome P450 2D6 = Cytochrome P450 2D6 (Homo sapiens, UniProt P10635);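 note: CYP2D6 member of a cytochrome P450 panel assay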
Cytochrome P450 2C19 = Cytochrome P450 2C19 (Homo sapiens, UniProt P33261); test: Cytochrome panel assay with activity outcomes. Panel member name: p450-cyp2c19 Compounds with AC50 equal or less than 10 uM are considered active; format: functional; conditions: read-out: AC50
Cytochrome P450 2C19, sequence (P33261 whole entry): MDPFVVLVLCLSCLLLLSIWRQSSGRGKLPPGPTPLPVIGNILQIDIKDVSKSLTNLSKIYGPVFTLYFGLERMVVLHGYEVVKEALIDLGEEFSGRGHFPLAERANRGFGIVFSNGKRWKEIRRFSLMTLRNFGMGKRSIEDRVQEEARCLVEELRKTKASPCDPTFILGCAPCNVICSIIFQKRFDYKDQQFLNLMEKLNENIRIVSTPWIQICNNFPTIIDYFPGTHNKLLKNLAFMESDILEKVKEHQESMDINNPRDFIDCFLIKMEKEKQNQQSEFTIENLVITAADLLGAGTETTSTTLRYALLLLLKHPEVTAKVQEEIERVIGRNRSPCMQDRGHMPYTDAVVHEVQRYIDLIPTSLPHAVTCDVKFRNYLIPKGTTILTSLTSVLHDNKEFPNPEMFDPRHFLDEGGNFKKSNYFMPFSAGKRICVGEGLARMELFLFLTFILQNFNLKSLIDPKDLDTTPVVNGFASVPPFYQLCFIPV

Cytochrome P450 3A4, sequence (P08684 whole entry): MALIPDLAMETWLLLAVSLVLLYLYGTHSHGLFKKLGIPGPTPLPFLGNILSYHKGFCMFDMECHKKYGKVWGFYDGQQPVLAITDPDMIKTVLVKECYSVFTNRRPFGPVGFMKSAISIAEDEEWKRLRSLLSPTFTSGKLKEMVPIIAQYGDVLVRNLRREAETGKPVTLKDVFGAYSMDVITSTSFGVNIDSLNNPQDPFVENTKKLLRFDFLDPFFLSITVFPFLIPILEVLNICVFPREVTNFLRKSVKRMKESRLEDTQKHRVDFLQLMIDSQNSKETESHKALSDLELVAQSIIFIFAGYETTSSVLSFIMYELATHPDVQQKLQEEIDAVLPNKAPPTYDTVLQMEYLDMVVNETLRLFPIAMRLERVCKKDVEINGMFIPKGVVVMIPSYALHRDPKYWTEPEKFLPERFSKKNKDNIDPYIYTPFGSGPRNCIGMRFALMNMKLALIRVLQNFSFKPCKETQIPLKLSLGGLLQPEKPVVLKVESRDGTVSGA
Phospholipase A2, sequence (P04054 whole entry): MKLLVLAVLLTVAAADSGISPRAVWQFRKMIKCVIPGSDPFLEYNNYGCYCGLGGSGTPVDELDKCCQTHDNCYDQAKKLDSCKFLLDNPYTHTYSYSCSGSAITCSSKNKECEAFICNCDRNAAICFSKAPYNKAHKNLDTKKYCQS
Cytochrome P450 2C9, sequence (P11712 whole entry): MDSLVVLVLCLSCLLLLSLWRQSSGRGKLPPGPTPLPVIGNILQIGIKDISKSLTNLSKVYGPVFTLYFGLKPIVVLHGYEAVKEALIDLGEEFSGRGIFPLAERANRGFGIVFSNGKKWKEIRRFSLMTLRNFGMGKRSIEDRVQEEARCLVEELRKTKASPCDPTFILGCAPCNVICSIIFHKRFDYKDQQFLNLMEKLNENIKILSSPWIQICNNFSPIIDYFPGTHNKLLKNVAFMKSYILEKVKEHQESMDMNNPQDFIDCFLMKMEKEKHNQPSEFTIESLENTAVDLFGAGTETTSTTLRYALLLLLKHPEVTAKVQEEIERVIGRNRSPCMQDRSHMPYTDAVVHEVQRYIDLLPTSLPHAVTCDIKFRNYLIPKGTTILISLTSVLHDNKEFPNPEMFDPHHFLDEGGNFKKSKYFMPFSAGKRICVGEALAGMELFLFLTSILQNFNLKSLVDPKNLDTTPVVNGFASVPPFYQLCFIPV
Cytochrome P450 2D6, sequence (P10635 whole entry): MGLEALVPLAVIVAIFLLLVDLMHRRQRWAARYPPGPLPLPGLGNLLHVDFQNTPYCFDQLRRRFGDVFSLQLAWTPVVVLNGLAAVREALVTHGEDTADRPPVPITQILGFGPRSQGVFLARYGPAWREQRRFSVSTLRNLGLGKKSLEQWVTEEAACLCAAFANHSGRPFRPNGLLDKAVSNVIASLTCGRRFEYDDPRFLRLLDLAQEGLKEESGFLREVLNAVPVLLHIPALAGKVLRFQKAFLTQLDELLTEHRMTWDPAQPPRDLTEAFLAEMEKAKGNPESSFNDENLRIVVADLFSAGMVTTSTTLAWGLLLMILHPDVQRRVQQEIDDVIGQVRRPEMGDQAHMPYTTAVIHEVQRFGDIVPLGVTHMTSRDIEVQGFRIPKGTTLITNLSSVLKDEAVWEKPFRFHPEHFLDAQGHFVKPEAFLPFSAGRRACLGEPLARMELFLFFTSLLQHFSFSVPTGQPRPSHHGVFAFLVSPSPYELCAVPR
Nucleotide-binding oligomerization domain-containing protein 2, sequence (Q9HC29 whole entry, the tested form may be a part): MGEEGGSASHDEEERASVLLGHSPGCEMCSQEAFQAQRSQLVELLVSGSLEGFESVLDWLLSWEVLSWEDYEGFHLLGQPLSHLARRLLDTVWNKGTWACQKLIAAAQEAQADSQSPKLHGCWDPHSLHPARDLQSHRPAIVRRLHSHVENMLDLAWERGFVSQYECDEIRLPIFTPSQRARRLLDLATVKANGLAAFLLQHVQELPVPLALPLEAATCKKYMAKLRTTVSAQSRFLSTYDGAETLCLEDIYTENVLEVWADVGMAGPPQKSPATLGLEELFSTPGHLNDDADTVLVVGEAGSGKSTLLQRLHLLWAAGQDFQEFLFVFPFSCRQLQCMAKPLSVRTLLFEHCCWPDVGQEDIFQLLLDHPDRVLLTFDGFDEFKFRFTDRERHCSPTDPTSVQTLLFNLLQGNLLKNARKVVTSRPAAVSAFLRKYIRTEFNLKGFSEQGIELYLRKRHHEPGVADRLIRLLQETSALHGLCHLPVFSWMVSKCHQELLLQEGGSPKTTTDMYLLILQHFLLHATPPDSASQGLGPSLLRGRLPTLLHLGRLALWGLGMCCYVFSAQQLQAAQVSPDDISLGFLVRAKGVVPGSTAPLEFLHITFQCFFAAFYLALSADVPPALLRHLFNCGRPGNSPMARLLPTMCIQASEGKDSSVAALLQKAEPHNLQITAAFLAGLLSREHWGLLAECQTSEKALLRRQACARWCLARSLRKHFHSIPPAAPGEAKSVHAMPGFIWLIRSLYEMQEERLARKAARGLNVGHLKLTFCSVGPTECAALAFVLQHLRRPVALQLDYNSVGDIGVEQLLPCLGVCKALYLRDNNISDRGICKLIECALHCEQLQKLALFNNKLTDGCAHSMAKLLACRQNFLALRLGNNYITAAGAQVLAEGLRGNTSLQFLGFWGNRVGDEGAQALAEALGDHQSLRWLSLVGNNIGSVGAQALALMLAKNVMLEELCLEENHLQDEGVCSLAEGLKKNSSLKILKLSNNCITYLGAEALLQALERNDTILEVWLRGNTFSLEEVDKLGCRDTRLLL

In the case of `COc1ccc(-c2nc(CN3CCN(c4ncnc5ccccc45)CC3)c(C)o2)c(OC)c1`, the EC50 (HEK293 [1]) is reported as 5.23 µM (active), the IC50 (HEK293 [2]) is reported as 6.96 µM (active) and the IC50 (HEK293 [3]) is reported as 13.7 µM (active). The EC50 [4] was 5.52 µM (active), the IC50 (HEK293 [5]) was 6.38 µM (active) and the IC50 (HEK293 [6]) was > 20 µM (inactive). The IC50 [7] was 16.8 µM (active), the AC50 [8] was 6.38 µM (active) and the AC50 [9] was > 70 µM (inactive). The AC50 [10] was 5.24 µM (active).
With `CN(NC1OC(=O)c2ccccc21)c1ccccc1[N+](=O)[O-]` (stereo unspecified) the IC50 (HEK293 [11]) was > 67.5 µM (inactive) and the IC50 [12] was > 67.5 µM (inactive).
For `O=C(Oc1ccccc1)N1CCC2(CC1)CN(c1ncccn1)C2`, the AC50 (Cytochrome P450 1A2) was 25.1 µM (inconclusive), the AC50 (Cytochrome P450 2C9) was 25.1 µM (inconclusive) and the AC50 (Cytochrome P450 3A4) was “inconclusive”.
For `O=C(Nc1ccccc1)N1CC2(CCN(C(=O)Oc3ccccc3)CC2)C1`, the AC50 (Cytochrome P450 1A2) was 20 µM (inconclusive) and the AC50 (Cytochrome P450 3A4) was “inconclusive”.
With `C[C@@H]1CN(Cc2nc(-c3cccs3)no2)C[C@H](C)O1` the IC50 (HEK293 [11]) was > 67.5 µM (inactive) and the IC50 [12] was > 67.5 µM (inactive).
For `CCCCn1c(SCC(=O)Nc2cc(C)n[nH]2)nc2ccsc2c1=O`, the IC50 [13] was > 20 µM (inactive), the IC50 (Cysteine protease ATG4B) was 12.2 µM (active) and the IC50 (Phospholipase A2) was 9.31 µM (active).
With `COc1ccc(-c2[nH]nc3c2C(c2ccc(OC(=O)N4CCOCC4)cc2)C(C#N)=C(N)O3)cc1` (stereo unspecified) the IC50 (Cysteine protease ATG4B) was 18.3 µM (active) and the IC50 (Phospholipase A2) was 13.4 µM (active).
With `O=C(c1ccccc1)c1cnc(Nc2ccccc2Cl)s1` the IC50 (Cysteine protease ATG4B) was 11.5 µM (active) and the IC50 (Phospholipase A2) was 7.65 µM (active).
In the case of `O=C(c1ccccc1)c1ccc2[nH]c(-c3ccc(NC(=O)c4ccccc4Br)cc3)nc2c1`, the EC50 [14] is reported as 2.97 µM (active), the EC50 [15] is reported as 6.15 µM (active) and the EC50 [16] is reported as 1.59 µM (active). The EC50 [17] was 7.33 µM (active), the AC50 (Cytochrome P450 2D6) was 14.1 µM (inconclusive) and the AC50 (Cytochrome P450 3A4) was “inconclusive”.
For `COC(=O)c1cc(/N=C/c2c(O)oc3ccccc3c2=O)cc(C(=O)OC)c1`, the IC50 (HEK293 [11]) was > 67.5 µM (inactive) and the IC50 [12] was > 67.5 µM (inactive).
For `CCOC(=O)c1c(-c2ccccc2)nc2ccccn12`, the AC50 (Cytochrome P450 2C19) was 25.1 µM (inconclusive), the AC50 (Cytochrome P450 2C9) was 25.1 µM (inconclusive) and the AC50 (Cytochrome P450 3A4) was “inconclusive”.
In the case of `CC1=CC(c2ccccc2)n2nnnc2N1` (stereo unspecified), the IC50 (HEK293 [11]) is reported as > 67.6 µM (inactive) and the IC50 [12] is reported as > 67.6 µM (inactive).
In the case of `Cc1c(C)c(C)c(CO/N=C/c2cccs2)c(C)c1C`, the IC50 (Cysteine protease ATG4B) is reported as 17.4 µM (active) and the IC50 (Phospholipase A2) is reported as 7.99 µM (active).
